Laboratory results: patent US8338429B2, “2-acylaminothiazole derivative or salt thereof” (Astellas Pharma, Inc., priority 2002, dated 2012)
Counter-ions that a name gives are not always drawn.

Tests used:
human c-mpl-Ba/F3 cells [1] = assay: Oral administration test for mice (c-mpl-Ba/F3 proliferation activity of plasma); format: in vivo; settings: male ICR mice, final plasma concentration 10%, maximum of each tested compound = 100%
Procedure: To male ICR mice, a tested compound dissolved or suspended in 0.5% methylcellulose aqueous solution was orally administrated in an amount of 100 mg/kg or 10 mg/kg. […] Plasma obtained by centrifugation at 12,000 rpm for 3 minutes was warmed up at 56° C. for 30 minutes, and added to the human c-mpl.Ba/F3 cell proliferation system described in (i) such that the final plasma concentration became 10%, and then cell proliferation activity was measured. The cell proliferation activity (%) of each plasma batch, when maximum cell proliferation activity of each tested compound was set to 100%, was calculated.

human c-mpl-Ba/F3 cells [2] = assay: Human c-mpl-Ba/F3 cell proliferation test; format: cell-based; settings: for pot.: concentration promoting cell proliferation to 30% of maximum cell proliferation activity value of Example 9 (of rhTPO for rhTPO), 24 hours culture; for Efficacy: maximum cell proliferation activity, maximum of Example 9 (of rhTPO for rhTPO) set to 100%
Procedure: In a 96 well microplate, 2×10^5 cells/ml of human c-mpl-Ba/F3 cells were cultured at 37° C. for 24 hours with 10% fetal bovine serum containing a RPMI1640 medium (100 μl/well) to which varied concentrations of tested compounds were respectively added. After the culturing, 10 μl/well of WST-1/1-methoxy PMS (cell counting kit, Dojindo) were added. Immediately after the adding and after 2 hours, absorbance of A450/A650 was measured with a microplate reader (Model 3350:Bio-Rad), and the absorbance increase after 2 hours was regarded as proliferation activity of each tested compound.
pot.: Concentration of tested compound for promoting cell proliferation of the compound of Example 9 (compound of Example 9 and rhTPO in rhTPO) to 30% of maximum cell proliferation activity value.
Efficacy: Maximum cell proliferation activity value of tested compound when the maximum cell proliferation activity value of the compound of Example 9 (compound of Example 9 and rhTPO in rhTPO) is set to 100%.

Human CD34+ cells = assay: Test for measuring effects of promoting the formation of megakaryocytic colonies; format: cell-based; settings: megakaryocytic colonies per well, 10-14 days
Procedure: Human CD34^+ cells were cultured at 37° C. for 10-14 days in the presence of tested materials in a 2 well chamber slide, using MegaCult™-C (Stem Cell Technologies). In accordance with the attached instructions, dehydration, fixing, and staining with antihuman glycoprotein IIb/IIIa antibody were carried out. A group of 3 or more stained megakaryocytes was regarded as 1 colony, and the number of colonies per well was measured with a microscope. EC30 values of each tested compound were calculated from a capacity curve.

[3] = plasma 2 hours after 10 mg/kg p.o.
[4] = plasma 2 hours after 100 mg/kg p.o.

Molecule	Cell proliferation activity (human c-mpl-Ba/F3 cells [1]; [3])	pot. (human c-mpl-Ba/F3 cells [2])	Efficacy (human c-mpl-Ba/F3 cells [2])	Cell proliferation activity (human c-mpl-Ba/F3 cells [1]; [4])	EC30 (Human CD34+ cells)
O=C(Nc1nc(-c2cc(Cl)cs2)c(N2CCN(C3CCCCC3)CC2)s1)c1ccc2cnccc2c1 [Example 214, N-[4-(4-chlorothiophen-2-5-yl)-5-(4-cyclohexylpiperazin-1-yl)thiazol-2-yl]isoquinoline-6-carboxamide]	>80%	15 nM	106%		
O=C(O)/C(Cl)=C/c1ccc(C(=O)Nc2nc(-c3ccc(Cl)c(Cl)c3)cs2)cc1 [Control 2, reference compound]		2.1 nM	96%	<10%	
Cl.O=C(Nc1nc(-c2cc(Cl)cs2)c(N2CCN(C3CCCCC3)CC2)s1)c1cnc(N2CCC(C(=O)O)CC2)c(Cl)c1 [Example 16, 1-(3-chloro-5-{[4-(4-chlorothiophen-2-yl)-5-(4-cyclohexylpiperzain-1-yl)thiazol-2-yl]carbamoyl}pyridin-2-yl)piperidine-4-carboxylic acid hydrochloride]	>80%	2.4 nM	93%		
O=C(Nc1nc(-c2cc(Cl)cs2)c(N2CCN(C3CCCCC3)CC2)s1)c1cnc(OCCCO)c(Cl)c1 [Example 250, 5-chloro-N-[4-(4-chlorothiophen-2-yl)-5-(4-cyclohexylpiperazin-1-yl)thiazol-2-yl]-6-(3-hydroxypropoxy)nicotinamide]	>80%	6.7 nM	87%		26 nM
CCCN1CCN(c2sc(NC(=O)c3ccc(OCCO)c(Cl)c3)nc2-c2cc(Cl)cs2)CC1 [Example 103, 3-chloro-N-[4-(4-chlorothiophen-2-yl)-5-(4-propylpiperazin-1-yl)thiazol-2-yl]-4-(2-hydroxyethoxy)benzamide]		18 nM	97%		
CCCC1CCN(c2sc(NC(=O)c3ccnc(OC)c3)nc2-c2cc(Cl)cs2)CC1 [Example 66]	61%	14 nM	99%		47 nM
rhTPO: thrombopoietin (TPO), a c-Mpl ligand playing an important role in differentiation into megakaryocytes		0.012 nM	100%		
O=C(Nc1nc(-c2cc(Cl)cs2)c(N2CCN(C3CCCCC3)CC2)s1)c1ccc(OCCO)c(Cl)c1 [Example 9, 3-chloro-N-[4-(4-chlorothiophen-2-yl)-5-(4-cyclohexylpiperazin-1-yl)thiazol-2-yl]-4-(2-hydroxyethoxy)benzamide hydrochloride]		10 nM	87%		12 nM
Cc1sc(NC(=O)c2ccc(/C=C(\Cl)C(=O)O)cc2)nc1-c1cccc(C(F)(F)F)c1 [Control 3, reference compound]		6.9 nM	96%	<10%	
O=C1NC(=S)S/C1=C\c1ccc(C(=O)Nc2nc(-c3ccc(Cl)c(Cl)c3)cs2)cc1 [Control 1, reference compound]		4.4 nM	101%	<10%	
